Assay: xn = mol fraction of the nth substance listed
Conditions: for mass density: 101 kPa, Liquid

CCCCCCO [hexan-1-ol] + CCCCCCC
Conditions | mass density [kg/m3] | surface tension liquid-gas [mN/m]
288.15 K, x2 = 0.05 | 814.76 | –
288.15 K, x2 = 0.0507 | – | 25.6
288.15 K, x2 = 0.0976 | 807.66 | –
288.15 K, x2 = 0.1018 | – | 25.01
288.15 K, x2 = 0.2001 | – | 24.02
288.15 K, x2 = 0.3087 | – | 23.22
288.15 K, x2 = 0.3197 | 775.17 | –
288.15 K, x2 = 0.3943 | 764.62 | –
288.15 K, x2 = 0.3949 | – | 22.55
288.15 K, x2 = 0.5021 | – | 22.16
288.15 K, x2 = 0.5088 | 748.93 | –
288.15 K, x2 = 0.6053 | – | 21.8
288.15 K, x2 = 0.6171 | 734.53 | –
288.15 K, x2 = 0.7045 | 723.24 | –
288.15 K, x2 = 0.7097 | – | 21.46
288.15 K, x2 = 0.8055 | – | 21.2
288.15 K, x2 = 0.808 | 710.42 | –
288.15 K, x2 = 0.9066 | – | 21.05
288.15 K, x2 = 0.9072 | 698.54 | –
288.15 K, x2 = 0.9517 | – | 20.94
293.15 K, x2 = 0.0494 | – | 25.01
293.15 K, x2 = 0.05 | 811.17 | –
293.15 K, x2 = 0.0976 | 804.03 | –
293.15 K, x2 = 0.1036 | – | 24.45
293.15 K, x2 = 0.201 | – | 23.47
293.15 K, x2 = 0.3037 | – | 22.65
293.15 K, x2 = 0.3197 | 771.33 | –
293.15 K, x2 = 0.3943 | 760.72 | –
293.15 K, x2 = 0.4422 | – | 21.75
293.15 K, x2 = 0.5056 | – | 21.54
293.15 K, x2 = 0.5088 | 744.95 | –
293.15 K, x2 = 0.5979 | – | 21.26
293.15 K, x2 = 0.6171 | 730.47 | –
293.15 K, x2 = 0.6999 | – | 20.8
293.15 K, x2 = 0.7045 | 719.14 | –
293.15 K, x2 = 0.808 | 706.27 | –
293.15 K, x2 = 0.8091 | – | 20.54
293.15 K, x2 = 0.9061 | – | 20.43
293.15 K, x2 = 0.9072 | 694.33 | –
293.15 K, x2 = 0.951 | – | 20.29
298.15 K, x2 = 0.0497 | – | 24.61
298.15 K, x2 = 0.05 | 807.56 | –
298.15 K, x2 = 0.0976 | 800.37 | –
298.15 K, x2 = 0.0987 | – | 24.05
298.15 K, x2 = 0.2023 | – | 22.92
298.15 K, x2 = 0.3096 | – | 22.09
298.15 K, x2 = 0.3197 | 767.46 | –
298.15 K, x2 = 0.3943 | 756.8 | –
298.15 K, x2 = 0.4078 | – | 21.45
298.15 K, x2 = 0.5054 | – | 21.04
298.15 K, x2 = 0.5088 | 740.94 | –
298.15 K, x2 = 0.6099 | – | 20.58
298.15 K, x2 = 0.6171 | 726.39 | –
298.15 K, x2 = 0.7045 | 715.01 | –
298.15 K, x2 = 0.7075 | – | 20.28
298.15 K, x2 = 0.808 | 702.07 | –
298.15 K, x2 = 0.8127 | – | 20.04
298.15 K, x2 = 0.905 | – | 19.93
298.15 K, x2 = 0.9072 | 690.09 | –
298.15 K, x2 = 0.9515 | – | 19.74
303.15 K, x2 = 0.0488 | – | 24.1
303.15 K, x2 = 0.05 | 803.92 | –
303.15 K, x2 = 0.0976 | 796.68 | –
303.15 K, x2 = 0.1027 | – | 23.55
303.15 K, x2 = 0.1865 | – | 22.62
303.15 K, x2 = 0.31 | – | 21.59
303.15 K, x2 = 0.3197 | 763.56 | –
303.15 K, x2 = 0.3943 | 752.84 | –
303.15 K, x2 = 0.4122 | – | 20.97
303.15 K, x2 = 0.5086 | – | 20.49
303.15 K, x2 = 0.5088 | 736.9 | –
303.15 K, x2 = 0.6147 | – | 20
303.15 K, x2 = 0.6171 | 722.28 | –
303.15 K, x2 = 0.7045 | 710.84 | –
303.15 K, x2 = 0.7097 | – | 19.78
303.15 K, x2 = 0.808 | 697.85 | –
303.15 K, x2 = 0.8089 | – | 19.54
303.15 K, x2 = 0.9068 | – | 19.26
303.15 K, x2 = 0.9072 | 685.82 | –
303.15 K, x2 = 0.9519 | – | 19.13
308.15 K, x2 = 0.0428 | – | 23.64
308.15 K, x2 = 0.05 | 800.26 | –
308.15 K, x2 = 0.0976 | 792.98 | –
308.15 K, x2 = 0.1025 | – | 23.03
308.15 K, x2 = 0.1986 | – | 22
308.15 K, x2 = 0.3055 | – | 21.1
308.15 K, x2 = 0.3197 | 759.64 | –
308.15 K, x2 = 0.3943 | 748.86 | –
308.15 K, x2 = 0.403 | – | 20.52
308.15 K, x2 = 0.498 | – | 20.11
308.15 K, x2 = 0.5088 | 732.83 | –
308.15 K, x2 = 0.6165 | – | 19.57
308.15 K, x2 = 0.6171 | 718.13 | –
308.15 K, x2 = 0.7042 | – | 19.35
308.15 K, x2 = 0.7045 | 706.64 | –
308.15 K, x2 = 0.808 | 693.59 | –
308.15 K, x2 = 0.8118 | – | 19.06
308.15 K, x2 = 0.9054 | – | 18.89
308.15 K, x2 = 0.9072 | 681.51 | –
308.15 K, x2 = 0.9503 | – | 18.77

Reference: the NIST ThermoML archive (doi:10.1021/je060179e)
